Source: US20230373972A1, “PIPERAZINE DERIVATIVE, PREPARATION METHOD THEREFOR AND USE THEREOF” (Zhejiang Hisun Pharmaceutical Co., Ltd., priority 2020, published 2023)

Columns and labels:
[1] = target: T1, Native human Factor XIa protease (Homo sapiens, UniProt P03951); assay: Inhibition of activity of Factor XIa protease (chromogenic substrate S-2366); format: biochemical; settings: S-2366 1 mM, 37° C. 10 minutes, absorption at 405 nm
T1 construct: The Native human Factor XIa protease was purchased from Abcam; purchased Abcam ab62411
T1 sequence (P03951 388-625 limits assumed): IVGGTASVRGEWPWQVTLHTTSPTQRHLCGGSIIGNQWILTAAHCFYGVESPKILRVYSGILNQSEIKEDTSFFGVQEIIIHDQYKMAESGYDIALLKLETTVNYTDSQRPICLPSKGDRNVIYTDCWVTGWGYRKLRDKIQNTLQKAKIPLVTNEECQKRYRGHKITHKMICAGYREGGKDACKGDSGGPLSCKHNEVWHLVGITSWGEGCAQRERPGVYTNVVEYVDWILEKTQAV
T1 sequence (P03951 19-387 partner limits assumed): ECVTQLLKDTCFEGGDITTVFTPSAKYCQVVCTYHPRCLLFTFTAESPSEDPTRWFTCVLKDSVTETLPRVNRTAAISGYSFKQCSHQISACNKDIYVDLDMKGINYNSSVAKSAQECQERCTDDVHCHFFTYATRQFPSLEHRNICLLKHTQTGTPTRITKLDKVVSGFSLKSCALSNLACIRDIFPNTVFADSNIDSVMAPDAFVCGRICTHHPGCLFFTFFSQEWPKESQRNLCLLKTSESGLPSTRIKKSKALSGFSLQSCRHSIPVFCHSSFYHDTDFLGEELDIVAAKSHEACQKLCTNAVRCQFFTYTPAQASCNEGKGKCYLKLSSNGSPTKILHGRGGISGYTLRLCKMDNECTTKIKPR
Description: The following method was used to determine an inhibition degree of the compound of the present invention on an activity of Native human Factor XIa protease in vitro. In the method, a Factor XIa chromogenic substrate was used to test the inhibition degree on the activity of the Factor XIa protease. The Native human Factor XIa protease was purchased from Abcam (article number ab62411), and S-2366 was purchased from Chromogenix (article number 82109039). An experimental process was briefly described as follows: a test compound was dissolved in DMSO to prepare a 10 mM storage solution first, then the compound was diluted with a Factor XIa reaction buffer (100 mM Tris-HCl, 200 mM NaCl, 0.02% Tween 20, pH 7.4) by a quadruple gradient, and a final concentration of the test compound in a reaction system ranged from 10,000 nM to […]. The reaction was carried out in a 384-well microplate. 2 μL of the test compounds at different concentrations diluted with the reaction buffer were added to wells first, and 2 μL of 1% DMSO (a final concentration of DMSO in the reaction system was 0.1%) was used to replace blank and control wells. Subsequently, 8 μL of enzyme working solution (a final concentration of Factor XIa was […]) was added to each well, and 8 μL of Factor XIa reaction buffer was used to replace the blank well, centrifuged for 30 seconds, and incubated on ice for 5 minutes. Finally, 10 μL of substrate working solution (a final concentration of S-2366 was 1 mM) was added to each well, and centrifuged for 30 seconds, and the reaction was started. The solution was incubated at 37° C. for 10 minutes to determine a light absorption value at 405 nm. By comparing with a light absorption value of the control group (0.1% DMSO), a percentage inhibition rate of the compound at each concentration was calculated, and nonlinear regression analysis was carried out on value-inhibition rate with the concentration of the compound by GraphPad Prism 5 software, so as to obtain an IC50 value of the compound, as shown in Table 1.

[2] = tested on: human plasma; assay: In-vitro anticoagulation on human plasma (APTT kit, coagulation time); settings: concentration of the compound when the coagulation time (APTT) was prolonged twice
Protocol: The following method was used to determine the in-vitro anticoagulation of the compound of the present invention in the human plasma. In the method, an APTT kit of the MediRox company was used to test. The APTT kit was purchased from MediRox (article number MRX930), and the human plasma was prepared internally.
The preparation of the human plasma was briefly described as follows: human plasma was collected in a blood collection tube containing sodium citrate, and centrifuged at 3,000 rpm for 10 minutes at room temperature, and plasma was collected, and packaged separately and stored at −80° C.
An APTT test process was briefly described as follows: a test compound was dissolved in DMSO to prepare a 10 mM storage solution first, then the test compound was diluted with DMSO by a triple gradient, and a final concentration of the test compound in a reaction system ranged from 217 μM to 0.03 μM. 4 μL, of test compounds at different concentrations diluted with DMSO were added to a centrifuge tube containing 180 μL of plasma, and 4 μL of DMSO was added to a blank group, shaken and mixed evenly, and incubated at 37° C. for 5 minutes. Subsequently, an APTT reagent was placed in a reagent holder according to instrument requirements, the incubated plasma sample was placed in a detection position of a coagulation analyzer, and a coagulation time was determined and recorded (s). With a final concentration of the compound as an abscissa and Ratio (Ratio=TiT0, wherein T0 was a coagulation time of a blank control, and Ti was a coagulation time of a compound to be tested) as an ordinate, a coagulation dose-effect curve was drawn by Graph Pad Prisms, and a concentration of the compound when the coagulation time was prolonged twice was calculated, which was namely a CT2 value, as shown in Table 2.

Structure (SMILES)	IC50 [1]	CT2 [2]
NC(=O)c1ccc(NC(=O)C(Cc2ccccc2)N2CC(=O)N(c3cc(Cl)ccc3-n3cnnn3)CC2=O)cc1 (centres unmarked) [Example 3, 4-(2-(4-(5-Chloro-2-(1H-tetrazol-1-yl)phenyl)-2,5-dioxopiperazin-1-yl)-3-phenylpropanamido)benzamide]	36.7 nM	6.6 µM
Cn1cc2cc(NC(=O)C(Cc3ccc(F)cc3)N3CC(=O)N(c4cc(Cl)ccc4-n4cnnn4)CC3=O)ccc2n1 (centres unmarked) [Example 41, 2-(4-(5-Chloro-2-(1H-tetrazol-1-yl)phenyl)-2,5-dioxopiperazin-1-yl)-3-(4-fluorophenyl)-N-(2-methyl-2H-indazol-5-yl)propanamide]	38.5 nM	8.5 µM
CN1Cc2cc(NC(=O)C(Cc3ccccc3)N3CC(=O)N(c4cc(Cl)ccc4-n4cnnn4)CC3=O)ccc2C1=O (centres unmarked) [Example 12, 2-(4-(5-Chloro-2-(1H-tetrazol-1-yl)phenyl)-2,5-dioxopiperazin-1-yl)-N-(2-methyl-1-oxoisoindolin-5-yl)-3-phenylpropanamide]	22.8 nM	4.4 µM
O=C(O)c1cccc(NC(=O)C(Cc2ccccc2)N2CC(=O)N(c3cc(Cl)ccc3-n3cnnn3)CC2=O)c1 (centres unmarked) [Example 9, 3-(2-(4-(5-Chloro-2-(1H-tetrazol-1-yl)phenyl)-2,5-dioxopiperazin-1-yl)-3-phenylpropanamido)benzoic Acid]	7.8 nM	2.9 µM
Cn1cc2cc(NC(=O)C(Cc3ccc(C#N)cc3)N3CC(=O)N(c4cc(Cl)ccc4-n4cc(Cl)nn4)CC3=O)ccc2n1 (centres unmarked) [Example 115, 2-(4-(5-chloro-2-(4-chloro-1H-1,2,3-triazol-1-yl)phenyl)-2,5-dioxopiperazin-1-yl)-3-(4-cyanophenyl)-N-(2-methyl-2H-indazol-5-yl)propanamide]	46.7 nM	11.7 µM
Cn1cc2cc(NC(=O)C(Cc3ccccc3)N3CC(=O)N(c4cc(Cl)ccc4-n4cc(C(F)(F)F)nn4)CC3=O)ccc2n1 (centres unmarked) [Example 121, 2-(4-(5-Chloro-2-(4-(trifluoromethyl)-1H-1,2,3-triazol-1-yl)phenyl)-2,5-dioxopiperazin-1-yl)-N-(2-methyl-2H-indazol-5-yl)-3-phenylpropanamide]	32.7 nM	16.1 µM
Cn1ccc(C[C@@H](C(=O)Nc2ccc3nn(C)cc3c2)N2CC(=O)N(c3cc(Cl)ccc3-n3cc(Cl)nn3)CC2=O)n1 [Example 112, (S)-2-(4-(5-chloro-2-(4-chloro-1H-1,2,3-triazole-1-yl)phenyl)-2,5-dioxopiperazin-1-yl)-3-(1-methyl-1H-pyrazole-3-yl)-N-(2-methyl-2H-indazol-5-yl)propionamide]	25.6 nM	5.6 µM
O=C(Nc1ccc(N2CCOC2=O)cc1)C(Cc1ccccc1)N1CC(=O)N(c2cc(Cl)ccc2-n2cnnn2)CC1=O (centres unmarked) [Example 14, 2-(4-(5-Chloro-2-(1H-tetrazol-1-yl)phenyl)-2,5-dioxopiperazin-1-yl)-N-(4-(2-oxooxazolidin-3-yl)phenyl)-3-phenylpropanamide]	44 nM	14.3 µM
CNC(=O)c1ccc(NC(=O)C(Cc2ccccc2)N2CC(=O)N(c3cc(Cl)ccc3-n3cnnn3)CC2=O)cc1 (centres unmarked) [Example 6, 4-(2-(4-(5-Chloro-2-(1H-tetrazol-1-yl)phenyl)-2,5-dioxopiperazin-1-yl)-3-phenylpropanamido)-N-methylbenzamide]	34.6 nM	4.9 µM
O=C(Nc1cccc(F)c1)C(Cc1ccccc1)N1CC(=O)N(c2cc(Cl)ccc2-n2cnnn2)CC1=O (centres unmarked) [Example 15, 2-(4-(5-Chloro-2-(1H-tetrazol-1-yl)phenyl)-2,5-dioxopiperazine-1-yl)-N-(3-fluorophenyl)-3-phenylpropanamide]	25.1 nM	9.9 µM
O=C(Nc1ccc2nccnc2c1)C(Cc1ccccc1)N1CC(=O)N(c2cc(Cl)ccc2-n2cc(Cl)nn2)CC1=O (centres unmarked) [Example 24, 2-(4-(5-Chloro-2-(4-chloro-1H-1,2,3-triazol-1-yl)phenyl)-2,5-dioxopiperazin-1-yl)-3-phenyl-N-(quinoxalin-6-yl)propanamide]	23.2 nM	–
COC(=O)Nc1ccc(NC(=O)C(Cc2ccccc2)N2CC(=O)N(c3cc(Cl)ccc3-n3cnnn3)CC2=O)cc1 (centres unmarked) [Example 2, Methyl (4-(2-(4-(5-chloro-2-(1H-tetrazol-1-yl)phenyl)-2,5-dioxopiperazin-1-yl)-3-phenylpropanamido)phenyl)carbamate]	44.9 nM	12.6 µM
CC(=O)c1ccc(NC(=O)C(Cc2ccccc2)N2CC(=O)N(c3cc(Cl)ccc3-n3cnnn3)CC2=O)cc1 (centres unmarked) [Example 17]	34.8 nM	11.2 µM
COC(=O)N1CCc2cc(NC(=O)C(Cc3ccccc3)N3CC(=O)N(c4cc(Cl)ccc4-n4cnnn4)CC3=O)ccc21 (centres unmarked) [Example 8, Methyl 5-(2-(4-(5-chloro-2-(1H-tetrazol-1-yl)phenyl)-2,5-dioxopiperazin-1-yl)-3-phenylpropanamido)indoline-1-carboxylate]	17.7 nM	–
O=C(Nc1ccc(N2CCCC2=O)cc1)C(Cc1ccccc1)N1CC(=O)N(c2cc(Cl)ccc2-n2cnnn2)CC1=O (centres unmarked) [Example 10, 2-(4-(5-Chloro-2-(1H-tetrazol-1-yl)phenyl)-2,5-dioxopiperazin-1-yl)-N-(4-(2-oxopyrrolidin-1-yl)phenyl)-3-phenylpropanamide]	43.9 nM	–
COc1ccc(CC(C(=O)Nc2ccc3nn(C)cc3c2)N2CC(=O)N(c3cc(Cl)ccc3-n3cc(Cl)nn3)CC2=O)cc1 (centres unmarked) [Example 108, 2-(4-(5-chloro-2-(4-chloro-1H-1,2,3-triazol-1-yl)phenyl)-2,5-dioxopiperazin-1-yl)-3-(4-methoxyphenyl)-N-(2-methyl-2H-indazol-5-yl)propanamide]	35.8 nM	10.6 µM
NC(=O)c1ccc(NC(=O)[C@H](Cc2ccccc2)N2CC(=O)N(c3cc(Cl)ccc3-n3cc(Cl)nn3)CC2=O)cc1F [Example 137, (S)-4-(2-(4-(5-chloro-2-(4-chloro-1H-1,2,3-triazol-1-yl)phenyl)-2,5-dioxopiperazin-1-yl)-3-phenylpropanamido)-2-fluorobenzamide]	27.3 nM	–
CCOC(=O)c1ccc(NC(=O)C(Cc2ccccc2)N2CC(=O)N(c3cc(Cl)ccc3-n3cnnn3)CC2=O)cc1 (centres unmarked) [Example 4, Ethyl 4-(2-(4-(5-chloro-2-(1H-tetrazol-1-yl)phenyl)-2,5-dioxopiperazin-1-yl)-3-phenylpropanamido) benzoate]	49.8 nM	–
O=C(Nc1ccn2nccc2c1)C(Cc1ccccc1)N1CC(=O)N(c2cc(Cl)ccc2-n2cc(Cl)nn2)CC1=O (centres unmarked) [Example 40, 2-(4-(5-chloro-2-(4-chloro-1H-1,2,3-triazol-1-yl)phenyl)-2,5-dioxopiperazin-1-yl)-3-phenyl-N-(pyrazolo[1.5-a]pyridin-5-yl)propanamide]	44.7 nM	–
O=C(O)c1ccc(NC(=O)C(Cc2ccccc2)N2CC(=O)N(c3cc(Cl)ccc3-n3ccnn3)CC2=O)cc1 (centres unmarked) [Example 11, 4-(2-(4-(5-Chloro-2-(1H-1,2,3-triazole-1-yl)phenyl)-2,5-dioxopiperazin-1-yl)-3-phenylpropanamido)benzoic Acid]	24.9 nM	8.1 µM
COc1nccc2cc(NC(=O)C(Cc3ccccc3)N3CC(=O)N(c4cc(Cl)ccc4-n4cnnn4)CC3=O)ccc12 (centres unmarked) [Example 23, 2-(4-(5-Chloro-2-(1H-tetrazol-1-yl)phenyl)-2,5-dioxopiperazin-1-yl)-N-(1-methoxyisoquinolin-6-yl)-3-phenylpropanamide]	43.2 nM	–
